From PMC2546511 (Journal of Molecular Biology, 2007)

Target: FliI ATPase (FliI^WT) (Salmonella enterica, UniProt P26465)
Conditions: in the presence of phospholipids; triplicate assays

Sequence of FliI ATPase (FliI^WT) (P26465 whole entry): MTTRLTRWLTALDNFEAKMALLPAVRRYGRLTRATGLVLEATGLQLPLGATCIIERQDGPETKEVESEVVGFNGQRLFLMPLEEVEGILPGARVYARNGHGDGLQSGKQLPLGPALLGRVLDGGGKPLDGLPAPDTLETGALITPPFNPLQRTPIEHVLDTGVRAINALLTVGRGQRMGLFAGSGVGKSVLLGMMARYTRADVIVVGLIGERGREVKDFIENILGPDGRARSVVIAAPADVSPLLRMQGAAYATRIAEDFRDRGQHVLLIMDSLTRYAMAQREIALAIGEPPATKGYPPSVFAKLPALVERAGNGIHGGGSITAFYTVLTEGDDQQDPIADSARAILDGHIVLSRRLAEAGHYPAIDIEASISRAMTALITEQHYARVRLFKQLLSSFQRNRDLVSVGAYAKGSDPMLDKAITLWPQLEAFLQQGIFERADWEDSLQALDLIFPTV

`Nc1ncnc2c1ncn2[C@@H]1O[C@H](COP(=O)(O)OP(=O)(O)OP(=O)(O)O)[C@@H](O)[C@H]1O` [ATP] gave a Km of 1 ± 15% mM.
